Assay [1] deals with Mitogen-activated protein kinase 3 (Homo sapiens) (UniProt P27361). Description: Inhibition of ERK1 (unknown origin) at 1 uM by Z'-Lyte assay relative to control.
The target of assay [2] is Mitogen-activated protein kinase 1 (Homo sapiens) (UniProt P28482). The assay is described as follows: Inhibition of ERK2 (unknown origin) at 1 uM by Z'-Lyte assay relative to control.
The target of assay [3] is Mitogen-activated protein kinase 7 (Homo sapiens) (UniProt Q13164). The assay is described as follows: Inhibition of ERK5 (unknown origin) at 1 uM by Z'-Lyte assay relative to control.
The next assay has as its system HL-60. Description: Antiproliferative activity against human HL60 cells assessed as reduction in cell viability measured after 24 hrs. As to conditions: HL-60, 24 h. It counts as functional, cell-based.
The next assay relates to MKN-74. Description: Antiproliferative activity against human MKN74 cells assessed as reduction in cell viability measured after 24 hrs. As to conditions: MKN-74, 24 h. It counts as functional, cell-based.
The subject of a further assay is HeLa. The assay is described as follows: Antiproliferative activity against human HeLa cells assessed as reduction in cell viability measured after 24 hrs. It counts as functional, cell-based.

Bounds are passed on as bounds.

Sequence of Mitogen-activated protein kinase 1 (Homo sapiens) (P28482 whole entry): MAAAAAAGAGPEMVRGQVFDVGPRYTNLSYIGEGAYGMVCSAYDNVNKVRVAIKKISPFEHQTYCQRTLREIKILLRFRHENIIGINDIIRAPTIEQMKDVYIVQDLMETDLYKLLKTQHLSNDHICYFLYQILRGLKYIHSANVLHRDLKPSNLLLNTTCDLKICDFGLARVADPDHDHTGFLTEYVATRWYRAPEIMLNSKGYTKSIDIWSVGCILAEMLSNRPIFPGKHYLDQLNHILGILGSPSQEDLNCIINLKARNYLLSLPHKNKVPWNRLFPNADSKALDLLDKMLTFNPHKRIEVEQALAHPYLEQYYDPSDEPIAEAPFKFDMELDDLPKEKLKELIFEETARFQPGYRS
Sequence of Mitogen-activated protein kinase 3 (Homo sapiens) (P27361 whole entry): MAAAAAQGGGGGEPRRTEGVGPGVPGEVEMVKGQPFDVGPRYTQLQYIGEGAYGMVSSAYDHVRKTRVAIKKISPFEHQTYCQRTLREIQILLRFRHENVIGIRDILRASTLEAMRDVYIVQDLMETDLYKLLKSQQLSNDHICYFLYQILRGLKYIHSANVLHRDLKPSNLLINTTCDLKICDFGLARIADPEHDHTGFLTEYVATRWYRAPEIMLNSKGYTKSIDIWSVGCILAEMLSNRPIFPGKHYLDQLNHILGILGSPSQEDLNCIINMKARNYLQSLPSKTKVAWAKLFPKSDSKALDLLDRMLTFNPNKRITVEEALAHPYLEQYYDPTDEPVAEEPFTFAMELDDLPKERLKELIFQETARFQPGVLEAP
Sequence of Mitogen-activated protein kinase 7 (Homo sapiens) (Q13164 2-816 limits assumed): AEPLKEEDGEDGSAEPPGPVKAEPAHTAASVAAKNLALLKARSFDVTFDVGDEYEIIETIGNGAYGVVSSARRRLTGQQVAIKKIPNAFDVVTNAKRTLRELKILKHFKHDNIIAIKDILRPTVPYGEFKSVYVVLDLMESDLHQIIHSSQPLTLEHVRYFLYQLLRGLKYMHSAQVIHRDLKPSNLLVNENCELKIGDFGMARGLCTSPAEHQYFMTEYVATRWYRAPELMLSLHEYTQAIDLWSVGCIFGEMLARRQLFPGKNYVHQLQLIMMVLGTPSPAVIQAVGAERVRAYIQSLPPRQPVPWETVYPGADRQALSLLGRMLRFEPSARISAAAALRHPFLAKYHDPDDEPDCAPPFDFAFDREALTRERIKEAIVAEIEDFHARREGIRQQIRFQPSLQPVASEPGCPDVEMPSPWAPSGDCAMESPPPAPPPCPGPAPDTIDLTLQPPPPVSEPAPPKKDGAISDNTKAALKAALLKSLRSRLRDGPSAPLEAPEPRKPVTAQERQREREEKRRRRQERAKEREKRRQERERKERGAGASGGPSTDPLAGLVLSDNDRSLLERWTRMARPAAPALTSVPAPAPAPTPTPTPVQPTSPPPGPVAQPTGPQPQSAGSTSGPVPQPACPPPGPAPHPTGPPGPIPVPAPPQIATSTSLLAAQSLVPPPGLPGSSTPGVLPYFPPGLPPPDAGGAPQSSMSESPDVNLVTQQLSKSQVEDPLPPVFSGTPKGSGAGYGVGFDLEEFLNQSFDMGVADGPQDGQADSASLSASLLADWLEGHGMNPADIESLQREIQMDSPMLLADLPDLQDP

The term inhibition denotes the drop in the measured response relative to a control, in per cent. A low value points to little suppression. The IC50 is the point on the concentration scale where inhibition reaches its midpoint. For `NC(=O)c1c(NC(=O)c2cccc([N+](=O)[O-])c2)sc2c1CCN(Cc1c(Cl)cccc1Cl)C2`, the inhibition in assay [1] was 31.6%; in assay [2], 29.3%; in assay [3], 45.2%. Also, the values for the IC50 in the assay with HL-60, with MKN-74 and with HeLa were 18.4 µM, 13.5 µM and 46.1 µM, respectively.
Take `NC(=O)c1c(NC(=O)c2ccccc2Cl)sc2c1CCN(Cc1cc(Cl)cc(Cl)c1)C2`: the inhibition in assay [1] is 61%; in assay [2], 59.9%; in assay [3], 22.9%. Besides, the results for the IC50 in the assay on HL-60, in the assay with MKN-74 and with HeLa were 15.8 µM, 23.7 µM and 19.6 µM, respectively.
On to `NC(=O)c1c(NC(=O)c2ccccc2Cl)sc2c1CCN(Cc1ccccc1)C2`, for which the inhibition in assay [1] worked out at 60.1%; in assay [2] it was 62.9%; in assay [3], 63.7%. Moreover, the IC50 with HL-60 came to 12 µM; with MKN-74, 14.5 µM; with HeLa, 38.4 µM.
Take `NC(=O)c1c(NC(=O)c2ccccc2F)sc2c1CCN(Cc1ccc(Cl)cc1Cl)C2`: the inhibition in assay [1] was found to be 55.7%; in assay [2] it was 32.4%; in assay [3] it was 38%. For the same compound, the 50% inhibitory concentration (IC50) with HL-60 was determined as 13.1 µM; in the assay with MKN-74, 9.61 µM; in the assay on HeLa, 27.5 µM.
On to `COc1ccccc1NC(=S)N1CCc2c(sc(NC(=O)c3ccccc3C(F)(F)F)c2C(N)=O)C1`, for which the inhibition in assay [1] worked out at 77.6%; in assay [2], 74.9%; in assay [3] it was 61.7%. For the same compound, the IC50 in the assay on HL-60 is above 50 µM; in the assay on MKN-74, 34.5 µM; in the assay with HeLa, above 50 µM.
For the compound `COc1ccccc1NC(=S)N1CCc2c(sc(NC(=O)c3ccccc3OC)c2C(N)=O)C1`, the inhibition in assay [1] is 44.7%; in assay [2], 48.7%; in assay [3], 32%. Further, the IC50 with HL-60, in the assay on MKN-74 and in the assay on HeLa was above 50 µM in each case.
Take `NC(=O)c1c(NC(=O)c2cccc([N+](=O)[O-])c2)sc2c1CCN(C(=S)Nc1cc(C(F)(F)F)cc(C(F)(F)F)c1)C2`: the inhibition came out at 80.2% in assay [1], 75% in assay [2] and 82.9% in assay [3]. Moreover, the figures for the IC50 in the assay on HL-60, in the assay with MKN-74 and in the assay with HeLa were 16.4 µM, 25.8 µM and 27.2 µM, respectively.
`NC(=O)c1c(NC(=O)c2ccccc2C(F)(F)F)sc2c1CCN(C(=S)Nc1ccccc1Cl)C2`: the inhibition in assay [1] was found to be 78.8%; in assay [2] it was 80.9%; in assay [3], 56.5%. Moreover, the figures for the IC50 with HL-60, in the assay on MKN-74 and with HeLa were 17.6 µM, 21.9 µM and 46.9 µM, respectively.
With `NC(=O)c1c(NC(=O)c2ccccc2C(F)(F)F)sc2c1CCN(C(=S)Nc1ccccc1F)C2`, the inhibition turned out to be 77.2% in assay [1], 81.6% in assay [2] and 86.5% in assay [3]. The figures for the IC50 in the assay on HL-60, with MKN-74 and with HeLa were 23.5 µM, 19.6 µM and above 50 µM, respectively.
Regarding `COc1ccccc1NC(=S)N1CCc2c(sc(NC(=O)c3ccccc3Cl)c2C(N)=O)C1`, the inhibition in assay [1] turned out to be 71.3%; in assay [2], 70.6%; in assay [3], 53.7%. In addition, the concentration for half-maximal inhibition (IC50) was 40.9 µM with HL-60, 35.2 µM in the assay on MKN-74 and above 50 µM with HeLa.
Consider `NC(=O)c1c(NC(=O)c2ccccc2Cl)sc2c1CCN(Cc1ccc(Cl)cc1Cl)C2`, for which the inhibition in assay [1] turned out to be 68.9%; in assay [2] it was 66.6%; in assay [3], 63.1%. The IC50 in the assay with HL-60 came to 8.01 µM; in the assay with MKN-74 it was 16.3 µM; in the assay on HeLa, 21.1 µM.
On to `NC(=O)c1c(NC(=O)c2ccc(C(F)(F)F)cc2)sc2c1CCN(Cc1ccc(Cl)cc1)C2`, for which the results for the inhibition in assay [1], in assay [2] and in assay [3] were 47.8%, 43.3% and 61.1%, respectively. For the same compound, the IC50 in the assay with HL-60, in the assay with MKN-74 and in the assay on HeLa was above 50 µM in each case.
In the case of `Cc1ccc(C(=O)Nc2sc3c(c2C(N)=O)CCN(C(=O)Nc2ccccc2Cl)C3)cc1`, the figures for the inhibition in assay [1], in assay [2] and in assay [3] were 70.4%, 71.9% and 53.8%, respectively. For the same compound, the IC50 was 14.6 µM in the assay on HL-60, 27.6 µM in the assay with MKN-74 and 32.9 µM with HeLa.
For the compound `NC(=O)c1c(NC(=O)c2ccccc2I)sc2c1CCN(C(=S)Nc1ccccc1Cl)C2`, the inhibition in assay [1] is 83.5%; in assay [2], 85.8%; in assay [3], 80.4%. Besides, the IC50 in the assay on HL-60 was 8.56 µM; with MKN-74, 17.5 µM; with HeLa, above 50 µM.
In the case of `Cc1ccc(C(=O)Nc2sc3c(c2C(N)=O)CCN(C(=S)Nc2ccccc2Cl)C3)cc1`, the values for the inhibition in assay [1], in assay [2] and in assay [3] were 83.2%, 82.8% and 50.4%, respectively. The half-inhibitory concentration (IC50) with HL-60 is 8.43 µM; in the assay with MKN-74, 11.3 µM; in the assay with HeLa it was 26.2 µM.
With `NC(=O)c1c(NC(=O)c2ccccc2Cl)sc2c1CCN(Cc1ccc(Cl)cc1)C2`, the inhibition was 47.4% in assay [1], 55.4% in assay [2] and 47% in assay [3]. The IC50 in the assay on HL-60 was 22.5 µM; in the assay with MKN-74, 18.7 µM; in the assay on HeLa it was above 50 µM.
Turning to `NC(=O)c1c(NC(=O)c2cccc([N+](=O)[O-])c2)sc2c1CCN(C(=S)Nc1ccccc1Cl)C2`, the inhibition in assay [1] is 64.2%; in assay [2], 58.5%; in assay [3] it was 70.7%. For the same compound, the figures for the IC50 with HL-60, in the assay on MKN-74 and in the assay on HeLa were 7.04 µM, 8.85 µM and 40.3 µM, respectively.
In the case of `NC(=O)c1c(NC(=O)c2ccccc2Cl)sc2c1CCN(C(=S)Nc1ccccc1Br)C2`, the inhibition in assay [1] was found to be 90.9%; in assay [2] it was 86.9%; in assay [3], 88.5%. Moreover, the figures for the IC50 with HL-60, with MKN-74 and in the assay with HeLa were 9.09 µM, 10.8 µM and 24.6 µM, respectively.
On to `NC(=O)c1c(NC(=O)c2ccccc2Cl)sc2c1CCN(C(=S)Nc1ccccc1-c1ccccc1)C2`, for which the inhibition was determined as 60.9% in assay [1], 64.7% in assay [2] and 40.5% in assay [3]. Besides, the values for the IC50 in the assay on HL-60, in the assay with MKN-74 and in the assay with HeLa were 34.4 µM, 25.8 µM and 24.9 µM, respectively.
With `NC(=O)c1c(NC(=O)c2ccccc2Cl)sc2c1CCN(C(=S)Nc1ccccc1C(F)(F)F)C2`, the inhibition in assay [1] came out at 83.6%; in assay [2], 85.7%; in assay [3], 76.6%. Also, the IC50 in the assay with HL-60 worked out at 10.6 µM; in the assay on MKN-74, 1.87 µM; with HeLa it was 26.7 µM.
As to `Cc1ccccc1NC(=S)N1CCc2c(sc(NC(=O)c3ccccc3Br)c2C(N)=O)C1`, the inhibition in assay [1] was found to be 65.1%; in assay [2], 60.8%; in assay [3], 46.7%. Also, the IC50 in the assay with HL-60, with MKN-74 and in the assay with HeLa was above 50 µM throughout.
For `Cc1ccccc1C(=O)Nc1sc2c(c1C(N)=O)CCN(C(=S)Nc1ccccc1Cl)C2`, the inhibition in assay [1] was determined as 70.6%; in assay [2] it was 65.9%; in assay [3], 53%. Moreover, the figures for the IC50 in the assay on HL-60, with MKN-74 and with HeLa were 20.9 µM, 11 µM and 35.3 µM, respectively.
`NC(=O)c1c(NC(=O)c2ccccc2Cl)sc2c1CCN(C(=O)Nc1c(Cl)cccc1Cl)C2`: the inhibition turned out to be 82.7% in assay [1], 85% in assay [2] and 82.7% in assay [3]. Also, the IC50 was determined as 17.7 µM in the assay on HL-60, 24.4 µM with MKN-74 and 27.2 µM with HeLa.
As to `NC(=O)c1c(NC(=O)c2ccccc2Cl)sc2c1CCN(Cc1ccccc1Cl)C2`, the inhibition in assay [1] is 61.4%; in assay [2], 65.2%; in assay [3], 65.1%. Also, the figures for the IC50 in the assay on HL-60, in the assay on MKN-74 and in the assay with HeLa were 2.9 µM, 4.43 µM and 27.5 µM, respectively.
For the compound `NC(=O)c1c(NC(=O)c2ccncn2)sc2c1CCN(C(=S)Nc1ccccc1Cl)C2`, the inhibition in assay [1] came to 48.5%; in assay [2], 45.7%; in assay [3], 38.5%. The IC50 with HL-60 was 34.6 µM; with MKN-74, 28.4 µM; with HeLa it was above 50 µM.
For the compound `NC(=O)c1c(NC(=O)c2ccccc2Cl)sc2c1CCNC2`, the inhibition in assay [1] was determined as 61.5%; in assay [2], 64.9%; in assay [3], 62.7%. In addition, the values for the IC50 in the assay with HL-60, in the assay on MKN-74 and with HeLa were 18.6 µM, 28.7 µM and 45 µM, respectively.
`NC(=O)c1c(NC(=O)c2ccc[nH]2)sc2c1CCN(C(=S)Nc1cccnc1)C2`: the inhibition came out at 74.4% in assay [1], 79.7% in assay [2] and 48.6% in assay [3]. In addition, the 50% inhibitory concentration (IC50) was above 50 µM in the assay with HL-60, above 50 µM with MKN-74 and 47.4 µM in the assay on HeLa.
Take `CSc1ccccc1C(=O)Nc1sc2c(c1C(N)=O)CCN(C(=S)Nc1ccccc1Cl)C2`: the inhibition in assay [1] came out at 67.2%; in assay [2] it was 63.4%; in assay [3] it was 49.1%. The half-maximal inhibitory concentration (IC50) with HL-60 amounted to 30.5 µM; with MKN-74, 6.55 µM; with HeLa, 34.7 µM.
Regarding `NC(=O)c1c(NC(=O)c2ccc(C(F)(F)F)cc2)sc2c1CCN(C(=S)Nc1ccccc1Cl)C2`, the results for the inhibition in assay [1], in assay [2] and in assay [3] were 75.6%, 79% and 57.5%, respectively. Besides, the values for the IC50 with HL-60, with MKN-74 and in the assay on HeLa were 36.1 µM, 16.4 µM and 44 µM, respectively.
For the compound `NC(=O)c1c(NC(=O)c2ccc(C(F)(F)F)cc2)sc2c1CCN(C(=S)Nc1ccc(C(F)(F)F)cc1)C2`, the inhibition turned out to be 82.5% in assay [1], 79.7% in assay [2] and 57.9% in assay [3]. For the same compound, the figures for the IC50 in the assay with HL-60, in the assay on MKN-74 and with HeLa were 5.52 µM, 12.2 µM and above 50 µM, respectively.

Values taken from ChEMBL document CHEMBL4342467, “Discovery of a Novel Dual-Target Inhibitor of ERK1 and ERK5 That Induces Regulated Cell Death to Overcome Compensatory Mechanism in Specific Tumor Types” (J Med Chem, 2020).
